Read-outs that look alike come from different tables or passages of the source.
Tests used:
[1] = molecular target: T1, human Alpha-1a Adrenergic receptor (Homo sapiens, UniProt P35348); assay: Binding affinity at the human alpha-1A adrenergic receptor; settings: Table 3c; read-out: hAlpha-1a Ki
T1 construct: expressed in transfected cells
T1 sequence (P35348 1-466): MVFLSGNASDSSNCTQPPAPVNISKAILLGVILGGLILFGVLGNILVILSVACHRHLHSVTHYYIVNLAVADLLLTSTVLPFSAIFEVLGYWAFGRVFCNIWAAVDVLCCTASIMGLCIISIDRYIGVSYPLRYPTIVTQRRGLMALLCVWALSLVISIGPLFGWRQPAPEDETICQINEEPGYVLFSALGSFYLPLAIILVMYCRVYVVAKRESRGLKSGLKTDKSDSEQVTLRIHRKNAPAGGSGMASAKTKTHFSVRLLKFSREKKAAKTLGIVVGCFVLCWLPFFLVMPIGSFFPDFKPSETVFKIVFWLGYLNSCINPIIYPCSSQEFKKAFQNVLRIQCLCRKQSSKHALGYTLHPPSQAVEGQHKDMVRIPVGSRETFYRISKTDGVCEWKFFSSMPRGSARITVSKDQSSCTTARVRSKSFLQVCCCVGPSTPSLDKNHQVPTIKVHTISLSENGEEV
Description: (§1) Other receptors: Cell membranes expressing human dopamine D1, D2, D4 and rat D3 receptors were purchased through BioSignal, Inc. (Montreal, Canada). Binding assays using the histamine H1 receptor; dopamine receptors; and α1A, α1B, and α2 adrenergic receptors may be carried out according to the procedures described in U.S. Pat. No. 5,780,485, the disclosure of which is hereby incorporated by reference in its entirety into this application. Binding assays using the dopamine D5 receptor may be carried out according to the procedures described in U.S. Pat. No. 5,882,855, the disclosure of which is hereby incorporated by reference in its entirety into this application. Binding assays for the human α1D adrenergic receptor may be carried out according to the procedures described in U.S. Pat. No. 6,156,518, the disclosure of which is hereby incorporated by reference in its entirety into this application.

[2] = molecular target: T2, human Dopamine D2 receptor (Homo sapiens, UniProt P14416); assay: Binding affinity at the human dopamine D2 receptor; settings: Table 3c; read-out: hD2 Ki
T2 construct: purchased BioSignal, Inc. (Montreal, Canada)
Description: as §1

[3] = molecular target: T3, human Histamine H1 receptor (Homo sapiens, UniProt P35367); assay: Binding affinity at the human histamine H1 receptor; settings: Table 3c; read-out: hH1 Ki
T3 construct: expressed in transfected cells
Description: as §1

rat MCH1 receptor = molecular target: T4, rat MCH1 receptor (Rattus norvegicus, UniProt P97639); assay: Binding affinity (Ki) at the rat MCH1 receptor
T4 construct: expressed in transfected cells
Description: For binding assays, pellets of transfected cells are suspended in ice-cold buffer (20 mM Tris.HCl, 5 mM EDTA, pH 7.4) and homogenized by sonication for 7 sec. The cell lysates are centrifuged at 200×g for 5 min at 4° C. The supernatants are then centrifuged at 40,000×g for 20 min at 4° C. The resulting pellets are washed once in the homogenization buffer and suspended in binding buffer (see methods for radioligand binding). Protein concentrations are determined by the method of Bradford (1976) using bovine serum albumin as the standard. Binding assays are usually performed immediately, however it is possible to prepare membranes in batch and store frozen in liquid nitrogen for future use.
Binding is performed at 25° C. for 1 hr. Incubations are terminated by rapid vacuum filtration over GF/C glass fiber filters, presoaked in 5% PEI using 50 mM Tris pH 7.4 containing 0.01% triton X-100 as wash buffer.
A methanolic solution of methyl (4S)-3-({[3-(4-[3-(acetylamino)phenyl]-3,6-dihydro-1(2H)pyridinyl)propyl]amino}carbonyl)-4-(3,4-difluorophenyl)-6-(methoxymethyl)-2-oxo-1,2,3,4-tetrahydro-5-pyrimidinecarboxylate was exposed to tritium gas at 1 atmosphere pressure in the presence of 5% palladium on carbon with stirring overnight to give the tritiated methyl (4S)-3-{[(3-{4-[3-(acetylamino)phenyl]-1-piperidinyl}propyl)amino]carbonyl}-4-(3,4-difluorophenyl)-6-(methoxymethyl)-2-oxo-1,2,3,4-tetrahydro-5-pyrimidinecarboxylate ((+)-isomer) After purification by reverse phase HPLC (Hypersil ODS, 4.6×100 mm, methanol:H2O:Et3N 10:90:1 to 100:0:1 in 15 min at 1.0 mL/min, with radiochemical and UV detection), this product was used as a radioligand in the MCH1 binding assays. The same procedure was carried out with H2 gas in place of ^3H2 to afford the non-radioactive version of Compound 10.

[4] = Examples 38-141, read-out: Ki (nM) rMCH1

T3 sequence (P35367 whole entry): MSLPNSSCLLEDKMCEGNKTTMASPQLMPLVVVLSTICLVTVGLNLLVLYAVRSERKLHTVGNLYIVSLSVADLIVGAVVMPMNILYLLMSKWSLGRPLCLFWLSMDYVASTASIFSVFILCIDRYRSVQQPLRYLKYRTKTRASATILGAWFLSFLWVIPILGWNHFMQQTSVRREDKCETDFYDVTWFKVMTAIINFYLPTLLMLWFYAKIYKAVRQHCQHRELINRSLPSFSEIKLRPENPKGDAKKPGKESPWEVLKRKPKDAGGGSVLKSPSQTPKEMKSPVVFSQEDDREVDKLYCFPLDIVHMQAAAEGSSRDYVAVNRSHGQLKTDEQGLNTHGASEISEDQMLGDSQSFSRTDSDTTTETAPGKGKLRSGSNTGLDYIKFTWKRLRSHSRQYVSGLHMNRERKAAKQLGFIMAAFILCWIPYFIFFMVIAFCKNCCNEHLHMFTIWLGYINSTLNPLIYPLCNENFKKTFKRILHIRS
T4 sequence (P97639 whole entry): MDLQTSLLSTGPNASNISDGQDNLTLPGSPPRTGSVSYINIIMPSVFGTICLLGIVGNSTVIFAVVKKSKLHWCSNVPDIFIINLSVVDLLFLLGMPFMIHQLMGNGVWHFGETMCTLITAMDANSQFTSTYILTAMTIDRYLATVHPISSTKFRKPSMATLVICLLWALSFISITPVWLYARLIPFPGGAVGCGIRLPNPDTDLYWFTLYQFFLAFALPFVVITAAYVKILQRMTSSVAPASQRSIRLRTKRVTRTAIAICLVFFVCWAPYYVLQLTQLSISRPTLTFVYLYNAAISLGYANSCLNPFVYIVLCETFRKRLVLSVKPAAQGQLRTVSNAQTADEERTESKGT
T2 sequence (P14416 whole entry): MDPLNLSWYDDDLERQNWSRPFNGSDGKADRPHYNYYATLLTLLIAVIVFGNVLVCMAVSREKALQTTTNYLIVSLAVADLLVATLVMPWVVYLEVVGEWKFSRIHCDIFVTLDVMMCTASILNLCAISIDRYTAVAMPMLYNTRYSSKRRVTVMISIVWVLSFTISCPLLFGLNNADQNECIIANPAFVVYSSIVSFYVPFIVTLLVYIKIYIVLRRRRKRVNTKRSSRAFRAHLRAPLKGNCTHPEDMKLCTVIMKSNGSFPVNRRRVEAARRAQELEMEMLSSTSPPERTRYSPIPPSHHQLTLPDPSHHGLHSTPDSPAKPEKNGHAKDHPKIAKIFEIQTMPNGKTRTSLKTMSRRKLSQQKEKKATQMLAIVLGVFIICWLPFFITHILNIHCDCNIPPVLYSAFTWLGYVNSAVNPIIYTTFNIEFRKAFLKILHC

| Compound | Ki [1] [nM] | Ki [2] [nM] | Ki [3] [nM] | Ki (rat MCH1 receptor; [4]) [nM] | Ki (rat MCH1 receptor; Table 3c, read-out: rMCH1 Ki) [nM] |
| --- | --- | --- | --- | --- | --- |
| CCCC(=O)Nc1cccc(C2CCN(CCCNC(=O)C3=C(COC)NC(=O)N[C@@H]3c3ccc(F)c(F)c3)CC2)c1 [Example 45] | 6030 | > 50000 | 4430 | 14.7 | 14.7 |
| CCC(=O)Nc1cccc(C2CCN(CCCNC(=O)C3=C(COC)NC(=O)N[C@@H]3c3ccc(F)c(F)c3)CC2)c1 [Example 46] | 2420 | > 50000 | 2870 | 8.16 | 8.16 |
| CCC(C)C(=O)Nc1cccc(C2CCN(CCCNC(=O)C3=C(COC)NC(=O)N[C@@H]3c3ccc(F)c(F)c3)CC2)c1 (stereo partly shown) [Example 48] | 16600 | > 50000 | 7770 | 22.1 | 22.1 |
| COCC1=C(C(=O)NCCCN2CCC(c3cccc(NC(=O)C(C)C)c3)CC2)[C@@H](c2ccc(F)c(F)c2)NC(=O)N1 [Example 50] | 10400 | 19800 | 7470 | 13.7 | 13.7 |
| CC(=O)Nc1cccc(C2CCN(CCCNC(=O)N3C(=O)NC4=C(C(=O)OC4)C3c3ccc4c(c3)OCO4)CC2)c1 (stereo not shown) [Example 53] | 2310 | 3450 | 10400 | 50.8 | 50.8 |
| COC(=O)C1=C(C)N=C(SCc2ccc(OC)cc2)N(C(=O)NCCCN2CCC(c3cccc(NC(C)=O)c3)CC2)C1c1ccc([N+](=O)[O-])cc1 (stereo not shown) [Example 54, METHYL 1-{[(3-{4-[3-(ACETYLAMINO)PHENYL]-1-PIPERIDINYL}PROPYL)AMINO]CARBONYL}-2-[(4-METHOXYBENZYL)SULFANYL]-4-METHYL-6-(4-NITROPHENYL)-1,6-DIHYDRO-5-PYRIMIDINECARBOXYLATE] | 11100 | 23000 | 11400 | 29.9 | 29.9 |
| CC(=O)Nc1cccc(C2CCN(CCCC(=O)c3ccc(C)c(C)c3)CC2)c1 [Example 57] | 49 | 6090 | 823 | 90 | 90 |
| COc1cccc(CC(=O)Nc2cccc(C3CCN(CCCC(=O)c4ccc(C)c(C)c4)CC3)c2)c1 [Example 61] | 9.1 | 1140 | 1620 | 14.2 | 14.2 |
| O=C(Cc1ccccc1)Nc1cccc(C2CCN(CCCC(=O)c3ccc(Cl)cc3)CC2)c1 [Example 68] | 57 | 771 | 571 | 84 | 84 |

More lines, in order of falling Ki [1], values ahead:

| Ki [1] [nM] | Ki [2] [nM] | Ki [3] [nM] | Ki (rat MCH1 receptor; [4]) [nM] | Ki (rat MCH1 receptor; Table 3c, read-out: rMCH1 Ki) [nM] | Compound |
| --- | --- | --- | --- | --- | --- |
| 553 | 13500 | 3250 | 34.3 | 34.3 | COCC1=C(C(=O)NCCCN2CCC(c3cccc(NC(=O)CC(C)C)c3)CC2)[C@@H](c2ccc(F)c(F)c2)NC(=O)N1 [Example 47] |
| 305 | 10400 | 7230 | 0.26 | 0.26 | COC(=O)C1=C(C)NC(=O)N(C(=O)NCCCN2CCC(c3cccc(NC(C)=O)c3)CC2)[C@H]1c1ccc(F)c(F)c1 [Example 56, METHYL (4S)-3-{[(3-{4[3-(ACETYLAMINO)PHENYL]-1-PIPERIDINYL}PROPYL)AMINO]CARBONYL}-4-(3,4-DIFLUOROPHENYL)-6-METHYL-2-OXO-1,2,3,4-TETRAHYDRO-5-PYRIMIDINECARBOXYLATE] |
| 284 | 5180 | 2280 | 52 | 52 | COc1ccc(C(=O)CCCN2CCC(c3cccc(NC(=O)C(C)C)c3)CC2)c(OC)c1 [Example 78] |
| 200 | 166 | 1430 | 0.81 | 0.81 | CCC1=C(C(=O)OCc2ccccc2)C(c2ccc(F)cc2F)N(C(=O)NCCCN2CCC(c3cccc(NC(C)=O)c3)CC2)C(=O)N1 (stereo not shown) [Example 52, BENZYL 3-{[(3-{4-[3-(ACETYLAMINO)PHENYL]-1-PIPERIDINYL}PROPYL)AMINO]CARBONYL}-4-(2,4-DIFLUOROPHENYL)-6-ETHYL-2-OXO-1,2,3,4-TETRAHYDRO-5-PYRIMIDINECARBOXYLATE] |
| 26.4 | 1430 | 1730 | 69 | 69 | CC(=O)Nc1cccc(C2CCN(CCCC(=O)c3ccc(Cl)cc3)CC2)c1 [Example 65] |
| 25.5 | 25100 | 5660 | 3.33 | 3.33 | COCC(=O)Nc1cccc(C2CCN(CCCNC(=O)N3C(=O)NC(COC)=C(C(=O)OC)[C@@H]3c3ccc(F)c(F)c3)CC2)c1 [Example 39, METHYL (4S)-4-(3,4-DIFLUOROPHENYL)-3-({[3-(4-{3-[(METHOXYACETYL)AMINO]PHENYL}-1-PIPERIDINYL)PROPYL]AMINO}CARBONYL)-6-(METHOXYMETHYL)-2-OXO-1,2,3,4-TETRAHYDRO-5-PYRIMIDINECARBOXYLATE] |
| 14.3 | 9610 | 4540 | 0.04 | 0.04 | CCC(=O)Nc1cccc(C2CCN(CCCNC(=O)N3C(=O)NC(COC)=C(C(=O)OC)[C@@H]3c3ccc(F)c(F)c3)CC2)c1 [Example 41, METHYL (4S)-4-(3,4-DIFLUOROPHENYL)-6-(METHOXYMETHYL)-2-OXO-3-{[(3-{4-[3-(PROPIONYLAMINO)PHENYL]-1-PIPERIDINYL)PROPYL)AMINO]CARBONYL}-1,2,3,4-TETRAHYDRO-5-PYRIMIDINECARBOXYLATE] |
| 11.4 | 3610 | 2590 | 0.09 | 0.09 | CCCC(=O)Nc1cccc(C2CCN(CCCNC(=O)N3C(=O)NC(COC)=C(C(=O)OC)[C@@H]3c3ccc(F)c(F)c3)CC2)c1 [Example 44, METHYL (4S)-3-{[(3-{4-[3-(BUTYRYLAMINO)PHENYL]-1-PIPERIDINYL}PROPYL)AMINO]CARBONYL}-4-(3,4-DIFLUOROPHENYL)-6-(METHOXYMETHYL)-2-OXO-1,2,3,4-TETRAHYDRO-5-PYRIMIDINECARBOXYLATE] |
| 10.9 | 3270 | 7800 | 0.6 | 0.6 | COCC1=C(C(=O)OC)[C@H](c2ccc(F)c(F)c2)N(C(=O)NCCCN2CCC(c3cccc(NC(=O)CC(C)C)c3)CC2)C(=O)N1 [Example 42, METHYL (4S)-4-(3,4-DIFLUOROPHENYL)-6-(METHOXYMETHYL)-3-({[3-(4-{3-[(3-METHYLBUTANOYL)AMINO]PHENYL}-1-PIPERIDINYL)PROPYL]AMINO}CARBONYL)-2-OXO-1,2,3,4-TETRAHYDRO-5-PYRIMIDINECARBOXYLATE] |
| 10.1 | 6640 | 1230 | 0.79 | 0.79 | CC(=O)Nc1cccc(C2CCN(CCCNC(=O)N3C(=O)NC(C)=C(C(C)=O)C3c3cc(F)c(F)c(F)c3)CC2)c1 (stereo not shown) [Example 51] |
| 8.72 | 2650 | 7120 | 2.72 | 2.72 | COCC1=C(C(=O)OC)[C@H](c2ccc(F)c(F)c2)N(C(=O)NCCCN2CCC(c3cccc(NC(=O)CC(C)(C)C)c3)CC2)C(=O)N1 [Example 40, METHYL (4S)-4-(3,4-DIFLUOROPHENYL)-3-({[3-(4-{3-[(3,3-DIMETHYLBUTANOYL)AMINO]PHENYL}-1-PIPERIDINYL)PROPYL]AMINO}CARBONYL)-6-(METHOXYMETHYL)-2-OXO-1,2,3,4-TETRAHYDRO-5-PYRIMIDINECARBOXYLATE] |

— patent US20040038855A1 (priority 1999, published 2004)
